# Measured values taken from patent US8436040B2, “Method of treating conditions involving PPAR-receptors with indole compounds” (Laboratoires Fournier S.A., priority 2005, dated 2013).
# Legend:
# db/db mice = test: db/db mouse model: serum glucose, triglyceride and cholesterol levels; type: in vivo; details: serum 4 hours after last gavage
# Description: The test protocol is as follows:
# Homozygous C57BL/Ks-db male mice (db/db mice), 11 to 13 weeks old at the start of the studies, are divided up into groups of 9-10 animals. The products are administered orally once a day for 5 days. One group of mice receives the vehicle only (0.5 or 1% methyl cellulose solution). A blood sample is taken from the retro-orbital sinus before treatment and 4 hours after the last gavage.
# After centrifugation, the serum is collected and the cholesterol, triglyceride and glucose levels are measured using a multiparameter analyzer with commercial kits.
# The results are expressed in % variation on the final day relative to the control group.
# C2C12 cells = test: β-oxidation of 1-C14 oleate on C2C12 cells differentiated in myotubes; type: cell-based, murine; details: 100 μM, 48 hours incubation
# Description: A second series of tests was performed with the compounds according to the invention in order to confirm the activity deduced from their affinity for the aforementioned receptors. This test consists in measuring the β-oxidation on HuH7 cells of human hepatic origin and C2C12 cells of murine muscular origin after differentiation in myotubes.
# The cells are inoculated into Petri dishes containing a central well. The products are added to the culture medium and incubated for 48 hours at different concentrations. After incubation for 22 hours, C14-radiolabeled oleate (1-C14 oleate) is added to the culture medium. The β-oxidation reaction is stopped 2 hours later by the addition of 40% perchloric acid.
# The CO2 liberated during the oxidation of the oleate is trapped with KOH solution and then counted.
# Each test is performed three times.
# The results are expressed in % variation relative to the control dishes (dishes without compounds).
# [1] = 3 mg/kg orally once a day for 5 days
# [2] = 30 mg/kg orally once a day for 5 days
# [3] = 100 mg/kg orally once a day for 5 days
Compound,"Cholesterol, % variation on the final day relative to the control group (db/db mice; [2])","Glucose, % variation on the final day relative to the control group (db/db mice; [2]) [%]","Triglycerides, % variation on the final day relative to the control group (db/db mice; [2]) [%]",further results
"CN(CCOc1ccc(CC2SC(=O)NC2=O)cc1)c1ccccn1 (stereo not shown) [Rosiglitazone, rosiglitazone, reference compound]",–,–,–,"Cholesterol, % variation on the final day relative to the control group (db/db mice; [1]): −30%; Glucose, % variation on the final day relative to the control group (db/db mice; [1]): −41%; Triglycerides, % variation on the final day relative to the control group (db/db mice; [1]): −52%"
"O=C(O)CCc1cc2cc(C(F)(F)F)ccc2n1S(=O)(=O)c1ccccc1 [Example 4, 1-(Phenylsulfonyl)-5-(trifluoromethyl)-1H-indole-2-propanoic acid]",+41%,−30,−12,"β-oxidation, % variation relative to the control dishes (C2C12 cells): 82%"
"O=C(O)CCCc1cc2cc(Cl)ccc2n1S(=O)(=O)c1ccc2c(c1)OCO2 [Example 163, 1-[(1,3-Benzodioxol-5-yl)sulfonyl]-5-chloro-1H-indole-2-butanoic acid]",−15%,−38,−35,–
"CC(OCc1cc2cc(Cl)ccc2n1S(=O)(=O)c1ccccc1)C(=O)O (stereo not shown) [Example 202, 2-[[5-Chloro-1-(phenylsulfonyl)-1H-indol-2-yl]methoxy]propanoic acid]",+25%,−52,−48,–
"O=C(O)CCc1cc2cc(Cl)ccc2n1S(=O)(=O)c1ccc2ncsc2c1 [Example 155, 1-[(6-Benzothiazolyl)sulfonyl]-5-chloro-1H-indole-2-propanoic acid]",+38%,−35,−41,–
"O=C(O)CCc1cc2cc(Cl)ccc2n1S(=O)(=O)c1ccccc1 [Example 2, 5-Chloro-1-(phenylsulfonyl)-1H-indole-2-propanoic acid]",+30%,0,−7,–
CC(C)OC(=O)C(C)(C)Oc1ccc(C(=O)c2ccc(Cl)cc2)cc1 [Fenofibrate],–,–,–,"Cholesterol, % variation on the final day relative to the control group (db/db mice; [3]): +32%; Glucose, % variation on the final day relative to the control group (db/db mice; [3]): −9%; Triglycerides, % variation on the final day relative to the control group (db/db mice; [3]): −7%"
